2 substances from patent US20260365696A1, “INHIBITORS OF PTP1B / NCK1 INTERACTION AND METHODS OF MAKING AND USING SAME” (Radella Pharmaceuticals LLC, priority 2023, published 2026) can be followed below.

Series [1] is described as follows: 28-day pharmacodynamic and liver toxicity study in C57BL/6 mice. It counts as in vivo, mouse. To be noted: 28 days; for body weight: 15 or 30 mg/kg IP daily; for signs of physiological or hepatic toxicity: 15 or 30 mg/kg daily IP. An excerpt: Animals: C57BL/6 male mice (−3 months) were purchased from Charles River, UK. All animals were housed and tested following European (Directive on the Protection of Animals used for Scientific Purposes, 2010/63/EU) and UK Home Office regulations. Experiments were approved by the University Ethics Board and carried out in accordance with the Animal (Scientific Procedures) Act 1986 and following ARRIVE guidelines.
Treatments: Mice were randomized in to the five experimental groups: Control (n=9); MD17, 15 mg/kg (n=6); MD17, 30 mg/kg (n=6); MD20, 15 mg/kg (n=6); and MD20, 30 mg/kg (n=6). MD17 and MD20 compounds were administered to mice once daily via intraperitoneal (IP) injection for a period of 28 consecutive days at a dose of either 15 or 30 mg/kg. Peptides were kept in −20 °C and dissolved in sterile phosphate buffered saline (PBS) freshly every day before the injection. Control mice received a daily PBS injection. Three mice died during the study, and the final number of animals in each group was: Control (n=9); MD17, 15 mg/kg (n=5); MD17, 30 mg/kg, (n=6); MD20, 15 mg/kg (n=5); and MD20, 30 mg/kg (n=5). All mice had ad libitum access to food and water and were kept in a 12 h light/dark cycle.
Bodyweights and body mass composition: body weights were recorded during the study and fat and lean mass composition was analysed using an EchoMRI scanner (EchoMedical Systems, Houston, TX, U.S.A.).
Fasted glucose: All animals were 5 h-fasted and tail glucose measured using an AlphaTRAK 2 glucose strips and glucometer (Abbot, UK).
Serum assays: Trunk-derived blood was collected from 5 h-fasted mice in to serum separator microtubes and kept at −80 °C. Serum was used for insulin (#EZRMI-13K, Merck), leptin (#90030, Crystal Chem), free fatty acids (FFA; #mak044, Sigma-Aldrich), alanine and aspartate aminotransferases (ALT and AST; #ab105134 and #ab105135, Abcam) analyses.
Statistical analyses: Data were expressed as means±SEM and were analysed using one- or two-way ANOVA with Bonferroni post hoc tests, as appropriate. GraphPad Prism (V8, GraphPad Software, Inc., San Diego, California, USA) was used for analyses. P-values <0.05 were considered significant.

A further series addresses T1, SH3-2 domain of NCK1 (Homo sapiens, UniProt P16333).
T1 construct: To amplify the NCK1 SH3-2 domain, the primers; 10xHis tag with TEV site (vector pSF-OXB20-NH2-10HIS) (N, cleaved yes); made in house; host or cells: E. coli C43(DE3)
As to the kind of experiment: Isothermal titration calorimetry (ITC) binding to NCK1 SH3-2 domain. Put shortly: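 Peptides (3-7.5 mM) titrated into TEV-cleaved, His-purified human NCK1 SH3-2 domain (0.125-0.3 mM) at 25 °C in 10 mM sodium buffer with sodium chloride, pH 8.0. One 0.2 μL then 19 × 2 μL injections; KD from fits with 0.8-1.2 sites, averaged over three runs.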
(Isothermal titration calorimetry measures the heat released or taken up as one component is titrated into another.)

pKd: −log10 of the molar value. A value given as a limit tells only on which side of the number the result lay.

Turning to Ac-PPPEHIPPPPRPPKR-NH2 [MD17], in series [1], the body weight entry is “No statistically significant differences” and the “signs of physiological or hepatic toxicity” value is on record as “did not induce any obvious signs of physiological or hepatic toxicity”. Besides, on SH3-2 domain of NCK1 (Alanine scanning of the MD17 15-mer peptide, ITC, 25 °C, pH 8.0), the pKd was ≥ 3.52.

Take Ac-PRPPKR-NH2 [MD20, Ac-PRPPKR-NH2]: in series [1] (30 mg/kg IP daily, vs control), the “% change in fat mass” value was “decreased”. Also, in series [1] (30 mg/kg IP daily, vs control), the “percentage change in body weight pre- versus post-treatment” value was “significant decrease in % change”. Moreover, the body weight entry in series [1] is “No statistically significant differences”. For the same substance, the “signs of physiological or hepatic toxicity” value in series [1] is “did not induce any obvious signs of physiological or hepatic toxicity”. The pKd is ≥ 3.52 on SH3-2 domain of NCK1 (Alanine scanning of the MD20 6-mer peptide, ITC, 25 °C, pH 8.0); ≥ 3.52 at SH3-2 domain of NCK1 (Peptide truncation analysis, ITC, 25 °C, pH 8.0); > 3.71 at SH3-2 domain of NCK1 (ability to bind SH3-2 domain of NCK1, stated in text).

One may read the pKd as −log10 of the Kd, conventionally taken in molar units.
